Test results: US9555038B2, “Heterocycle-substituted tetracyclic compounds and methods of use thereof for the treatment of viral diseases” (Merck Sharp & Dohme Corp., priority 2013, dated 2017)
Read-outs that look alike come from different tables or passages of the source.

Columns and labels:
HCV replicon 1A = assay: Cell-based HCV Replicon Assay A, replicon 1A
Procedure, shortened: (§1)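 HCV replicon RNA levels are measured by multiplexed real-time RT-PCR, with cyclophilin as internal control, after 3 days of compound exposure. Compounds are tested in 10 serial dilutions starting between 333.3 nM and 1.667 nM, with 5% FBS in the medium.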

HCV replicon 1AY93H = assay: Cell-based HCV Replicon Assay A, replicon 1AY93H
Procedure, shortened: as §1

HCV replicon 2B = assay: Cell-based HCV Replicon Assay A, replicon 2B
Procedure, shortened: as §1

[1] = Hepatitis C virus, read-out: 1A Y93H IC50 (nM), replicon 1AY93H
[2] = Hepatitis C virus, read-out: 2B IC50 (nM), replicon 2B
[3] = read-out: 1A Y93H IC50, replicon 1AY93H
[4] = replicon 1AY93H, read-out: 1A Y93H IC50

SMILES | IC50 (HCV replicon 1A; Hepatitis C virus) [nM] | IC50 (HCV replicon 1AY93H; [1]) [nM] | IC50 (HCV replicon 2B; [2]) [nM] | IC50 (HCV replicon 1AY93H; [3]) [nM] | IC50 (HCV replicon 2B; read-out: 2B IC50, replicon 2B) [nM] | IC50 (HCV replicon 1A) [nM] | IC50 (HCV replicon 1AY93H; [4]) [nM] | IC50 (HCV replicon 2B; replicon 2B, read-out: 2B IC50) [nM]
COC(=O)NC(C(=O)N1[C@@H]2C[C@@H]2C[C@H]1c1ncc(-c2ccc3c(c2)cc2n3C(c3cnc(C4CCC4)s3)Oc3cc(-c4cnc([C@@H]5CCCN5C(=O)[C@@H](NC(=O)OC)C(C)C)[nH]4)cc(C)c3-2)[nH]1)C(C)(C)F (single isomer, unassigned) [Compound 224] | 0.0027 | 0.462 | 0.204 | – | – | – | – | –
COC(=O)NC(C(=O)N1CCC[C@H]1c1ncc(-c2ccc3c(c2)cc2n3C(c3cnc(C4CC4)s3)Oc3cc(-c4cnc([C@@H]5CCCN5C(=O)[C@@H](NC(=O)OC)C(C)C)[nH]4)cc(F)c3-2)[nH]1)C1C[C@@H](C)O[C@@H](C)C1 (single isomer, unassigned) [Compound 306] | 0.003 | – | – | 0.244 | 0.145 | – | – | –
COC(=O)NC(C(=O)N1[C@@H]2C[C@@H]2C[C@H]1c1ncc(-c2ccc3c(c2)cc2n3C(c3cnc(C(C)(C)C)s3)Oc3cc(-c4cnc([C@@H]5CCCN5C(=O)[C@@H](NC(=O)OC)C(C)C)[nH]4)cc(F)c3-2)[nH]1)C(C)C (single isomer, unassigned) [Compound 323] | 0.0032 | – | – | 0.0051 | 0.078 | – | – | –
COC(=O)NC(C(=O)N1[C@@H]2C[C@@H]2C[C@H]1c1ncc(-c2ccc3c(c2)cc2n3C(c3cnc(C(C)(C)C)s3)Oc3cc(-c4cnc([C@@H]5CCCN5C(=O)[C@@H](NC(=O)OC)C(C)C)[nH]4)cc(F)c3-2)[nH]1)C(C)C (single isomer, unassigned) [Compound 324] | – | – | – | 0.263 | 1.67 | 0.002 | – | –
COC(=O)NC(C(=O)N1[C@@H]2C[C@@H]2C[C@H]1c1ncc(-c2ccc3c(c2)cc2n3C(c3cnc(C4CCCC4)s3)Oc3cc(-c4cnc([C@@H]5CCCN5C(=O)[C@@H](NC(=O)OC)C(C)C)[nH]4)cc(F)c3-2)[nH]1)C(C)(C)F (single isomer, unassigned) [Compound 327] | 0.0012 | – | – | 0.002 | 0.011 | – | – | –
COC(=O)NC(C(=O)N1[C@@H]2C[C@@H]2C[C@H]1c1ncc(-c2ccc3c(c2)cc2n3C(c3cnc(C4CCCC4)s3)Oc3cc(-c4cnc([C@@H]5CCCN5C(=O)[C@@H](NC(=O)OC)C(C)C)[nH]4)cc(F)c3-2)[nH]1)C(C)(C)F (single isomer, unassigned) [Compound 328] | – | – | – | 0.0463 | 0.163 | 0.0015 | – | –
COC(=O)N[C@H](C(=O)N1CCC[C@H]1c1ncc(-c2cc(F)c3c(c2)OC(c2nc4ccccc4s2)n2c-3cc3cc(-c4cnc([C@@H]5CCCN5C(=O)[C@@H](NC(=O)OC)C(C)C)[nH]4)ccc32)[nH]1)C(C)C (single isomer, unassigned) [Compound 401] | 0.0085 | 0.346 | – | – | 0.634 | – | – | –
COC(=O)N[C@H](C(=O)N1CCC[C@H]1c1ncc(-c2cc(F)c3c(c2)OC(c2cnc(-c4ccccn4)s2)n2c-3cc3cc(-c4cnc([C@@H]5CCCN5C(=O)[C@@H](NC(=O)OC)C(C)C)[nH]4)ccc32)[nH]1)C(C)C (single isomer, unassigned) [Compound 406] | 0.003 | 0.0034 | 0.005 | – | – | – | – | –
COC(=O)N[C@H](C(=O)N1CCC[C@H]1c1ncc(-c2cc(F)c3c(c2)OC(c2cnc(-c4ccc(C)o4)s2)n2c-3cc3cc(-c4cnc([C@@H]5CCCN5C(=O)[C@@H](NC(=O)OC)C(C)C)[nH]4)ccc32)[nH]1)C(C)C (single isomer, unassigned) [Compound 413] | 0.0036 | 0.0196 | – | – | 0.173 | – | – | –
COC(=O)N[C@H](C(=O)N1CCC[C@H]1c1ncc(-c2cc(F)c3c(c2)OC(c2nc(C(F)(F)F)cs2)n2c-3cc3cc(-c4cnc([C@@H]5CCCN5C(=O)[C@@H](NC(=O)OC)C(C)C)[nH]4)ccc32)[nH]1)C(C)C (single isomer, unassigned) [Compound 419] | – | – | 6.47 | 17.9 | – | 0.0041 | – | –
COC(=O)N[C@H](C(=O)N1CCC[C@H]1c1ncc(-c2cc(F)c3c(c2)OC(c2nc(C(F)(F)F)cs2)n2c-3cc3cc(-c4cnc([C@@H]5CCCN5C(=O)[C@@H](NC(=O)OC)C(C)C)[nH]4)ccc32)[nH]1)C(C)C (single isomer, unassigned) [Compound 420] | – | – | – | 1.87 | 5.56 | 0.0101 | – | –
CCC(CC)c1ncc(C2Oc3cc(-c4cnc([C@@H]5CCCN5C(=O)[C@@H](NC(=O)OC)C(C)C)[nH]4)cc(F)c3-c3cc4cc(-c5cnc([C@@H]6CCCN6C(=O)[C@@H](NC(=O)OC)C(C)C)[nH]5)ccc4n32)s1 (single isomer, unassigned) [Compound 421] | – | 0.014 | 0.103 | – | – | 0.0037 | – | –
COC(=O)N[C@H](C(=O)N1CCC[C@H]1c1ncc(-c2cc(F)c3c(c2)OC(c2cscn2)n2c-3cc3cc(-c4cnc([C@@H]5CCCN5C(=O)[C@@H](NC(=O)OC)C(C)C)[nH]4)ccc32)[nH]1)C(C)C (single isomer, unassigned) [Compound 430] | – | – | – | 19.5 | 7.1 | 0.006 | – | –
COC(=O)N[C@H](C(=O)N1CCC[C@H]1c1ncc(-c2cc(F)c3c(c2)OC(c2cscn2)n2c-3cc3cc(-c4cnc([C@@H]5CCCN5C(=O)[C@@H](NC(=O)OC)C(C)C)[nH]4)ccc32)[nH]1)C(C)C (single isomer, unassigned) [Compound 431] | – | – | – | 0.56 | 3.1 | 0.033 | – | –
COC(=O)NC(C(=O)N1[C@@H]2C[C@@H]2C[C@H]1c1ncc(-c2ccc3c(c2)cc2n3C(c3cnc(CC(C)C)s3)Oc3cc(-c4cnc([C@@H]5CCCN5C(=O)[C@@H](NC(=O)OC)C(C)C)[nH]4)cc(F)c3-2)[nH]1)C1CCOC(C)(C)C1 (single isomer, unassigned) [Compound 436] | – | – | – | – | – | 0.0011 | 0.126 | 0.318
CCCc1ncc(C2Oc3cc(-c4cnc([C@@H]5CCCN5C(=O)[C@@H](NC(=O)OC)C(C)C)[nH]4)cc(C)c3-c3cc4cc(-c5cnc([C@@H]6CCCN6C(=O)C(NC(=O)OC)C(C)(C)F)[nH]5)ccc4n32)s1 (single isomer, unassigned) [Compound 486] | 0.0041 | 0.342 | 0.031 | – | – | – | – | –
COC(=O)N[C@H](C(=O)N1CCC[C@H]1c1ncc(-c2cc(F)c3c(c2)OC(c2nc4c(s2)CCC4)n2c-3cc3cc(-c4cnc([C@@H]5CCCN5C(=O)[C@@H](NC(=O)OC)C(C)C)[nH]4)ccc32)[nH]1)C(C)C (single isomer, unassigned) [Compound 505] | – | – | – | 0.152 | 0.22 | 0.0015 | – | –
COC(=O)N[C@H](C(=O)N1CCC[C@H]1c1ncc(-c2cc(F)c3c(c2)OC(c2cnc(CC4CC4)s2)n2c-3cc3cc(-c4cnc([C@@H]5CCCN5C(=O)[C@@H](NC(=O)OC)C(C)C)[nH]4)ccc32)[nH]1)C(C)C (single isomer, unassigned) [Compound 510] | – | – | – | – | – | 0.001 | 0.629 | 0.624
COC(=O)N[C@H](C(=O)N1CCC[C@H]1c1ncc(-c2cc(F)c3c(c2)OC(c2cnc(C4CCCCC4)s2)n2c-3cc3cc(-c4cnc([C@@H]5CCCN5C(=O)[C@@H](NC(=O)OC)C(C)C)[nH]4)ccc32)[nH]1)C(C)C (single isomer, unassigned) [Compound 528] | – | – | – | 1.15 | 0.727 | 0.0014 | – | –
COC(=O)NC(C(=O)N1CCC[C@H]1c1ncc(-c2ccc3c(c2)cc2n3C(c3nc4c(s3)CCC4)Oc3cc(-c4cnc([C@@H]5CCCN5C(=O)[C@@H](NC(=O)OC)C(C)C)[nH]4)cc(F)c3-2)[nH]1)C1CCOC(C)(C)C1 (single isomer, unassigned) [Compound 537] | 0.0019 | 3.33 | 0.198 | – | – | – | – | –
COC(=O)NC(C(=O)N1CCC[C@H]1c1ncc(-c2ccc3c(c2)cc2n3C(c3cnc(CC4CC4)s3)Oc3cc(-c4cnc([C@@H]5CCCN5C(=O)[C@@H](NC(=O)OC)C(C)C)[nH]4)cc(F)c3-2)[nH]1)C1CCOC(C)(C)C1 (single isomer, unassigned) [Compound 538] | – | – | – | – | – | 0.0012 | 0.579 | 0.117
COC(=O)NC(C(=O)N1CCC[C@H]1c1ncc(-c2ccc3c(c2)cc2n3C(c3cnc(CC(C)C)s3)Oc3cc(-c4cnc([C@@H]5CCCN5C(=O)[C@@H](NC(=O)OC)C(C)C)[nH]4)cc(F)c3-2)[nH]1)C1CCOC(C)(C)C1 (single isomer, unassigned) [Compound 542] | – | – | – | 0.495 | 0.124 | 0.0014 | – | –
COC(=O)NC(C(=O)N1CCC[C@H]1c1ncc(-c2ccc3c(c2)cc2n3C(c3cnc(CC(C)C)s3)Oc3cc(-c4cnc([C@@H]5CCCN5C(=O)[C@@H](NC(=O)OC)C(C)C)[nH]4)cc(F)c3-2)[nH]1)C1CCOC(C)(C)C1 (single isomer, unassigned) [Compound 543] | – | – | – | 0.167 | 0.153 | 0.0021 | – | –
COC(=O)NC(C(=O)N1CCC[C@H]1c1ncc(-c2ccc3c(c2)cc2n3C(c3cnc(CC(C)C)s3)Oc3cc(-c4cnc([C@@H]5CCCN5C(=O)[C@@H](NC(=O)OC)C(C)C)[nH]4)cc(F)c3-2)[nH]1)C1C[C@@H](C)O[C@@H](C)C1 (single isomer, unassigned) [Compound 546] | 0.0014 | – | – | 0.315 | 0.165 | – | – | –
COC(=O)N[C@H](C(=O)N1CCC[C@H]1c1ncc(-c2cc(F)c3c(c2)OC(c2cnc(-c4ccc(F)cc4F)s2)n2c-3cc3cc(-c4cnc([C@@H]5CCCN5C(=O)[C@@H](NC(=O)OC)C(C)C)[nH]4)ccc32)[nH]1)C(C)C (stereo partly drawn) [Compound 55] | 0.0012 | 0.0021 | 0.003 | – | – | – | – | –
COC(=O)N[C@H](C(=O)N1CCC[C@H]1c1ncc(-c2cc(F)c3c(c2)OC(c2cnc(-c4ccncn4)s2)n2c-3cc3cc(-c4cnc([C@@H]5CCCN5C(=O)[C@@H](NC(=O)OC)C(C)C)[nH]4)ccc32)[nH]1)C(C)C (stereo partly drawn) [Compound 503] | 0.0022 | 0.149 | 0.362 | – | – | – | – | –
